{"source": "paper PMC10094418", "about": "“Butein Inhibits Cell Growth by Blocking the IL-6/IL-6Rα Interaction in Human Ovarian Cancer and by Regulation of the IL-6/STAT3/FoxO3a Pathway” (International Journal of Molecular Sciences, 2023)", "key": {"A2780 cells [1]": {"system": "A2780 cells", "test": "Flow cytometric cell cycle analysis (PI), A2780", "type": "cell-based, human", "details": "25 μM; 45.3% under control conditions", "protocol": "A2780 and SKOV3 cell lines were treated with control (siltuximab 10 μM) and butein (5, 10, and 25 μM). After 6 h, the cells were fixed with 70% ethanol for cell cycle analysis and stained with propidium iodide (PI). Cell death was analyzed using the FITC Annexin V Apoptosis Detection kit with 7-AAD (Cat.no. 640922, BioLegend, San Diego, CA, USA). Cells were sorted using a FACS Canto II (BD Biosciences, Franklin Lakes, NJ, USA) and cell cycle and apoptosis were analyzed using BD FACS Diva software version 6. 2. Analysis (BD Biosciences, Franklin Lakes, NJ, USA) was performed in triplicate."}, "[2]": {"system": "STAT3 phosphorylation in SKOV3 cells", "test": "Western blotting of STAT3 phosphorylation, SKOV3", "type": "cell-based, human", "details": "relative to IL-6 treated cells", "protocol": "After each drug treatment of the cells, the cells were dissolved in 100 μL of radioimmunoprecipitation assay (RIPA) buffer (Thermo Fisher Scientific Inc., Waltham, MA, USA) and centrifuged to separate the supernatant containing protein. Isolated protein concentrations were measured using the Pierce BCA Protein Assay Kit (Thermo Fisher Scientific Inc., Waltham, MA, USA). Aliquots of proteins quantified at […] were boiled at 100 °C in 5× sample buffer, separated on a 12% SDS-polyacrylamide gel and electrophoresed onto polyvinylidene difluoride (PDVF) membranes (Millipore, Billerica, MA, USA). The PDVF membranes were blocked for 1 h at 25 °C with 5% BSA in 1× tris buffered saline containing 0.05% Tween20 (TBST) (Sigma-Aldrich, St. Louis, MO, USA). The membrane was incubated in the primary antibody at 4 °C overnight. PDVF membranes were washed with 1× TBST and incubated with AffiniPure goat anti-rabbit IgG secondary antibody (Jackson Immunoresearch, West Grove, PA, USA) for 1 h at room temperature. After washing again with TBST buffer, enhanced signals were detected using the SuperSignal™ West Femto Maximum Sensitivity Substrate kit (cat.no. 34094, Thermo Scientific, Rockford, IL, USA). The blot was imaged using the ChemiDoc imaging system (Bio-Rad, Herles, CA, USA), and protein expression was quantified with the ImageJ software (v1.8.0)."}, "A2780 cells [3]": {"system": "A2780 cells", "test": "Matrigel invasion assay, A2780", "type": "cell-based, human", "details": "48 h", "protocol": "Matrigel invasion assays were performed using a BioCoat Matrigel Invasion Chamber (BD Bioscience, Bedford, MA, USA). A2780 and SKOV3 cells (50,000 cells) were placed inside the chamber in serum-free medium containing 500 μL of drugs, and 700 μL of medium containing serum were placed outside the chamber. After incubation for 48 h, the infiltrating cells were stained using the Differential Quick Stain Kit (Cat.no. 26096-50, Electron Microscopy Sciences, Hatfield, PA, USA). Cells were imaged with a Slide Scanner (Aperio CS2, Leica Microsystems, Wetzlar, Germany) and the number of invading cells was quantified using Image J."}, "A2780 xenograft tumors": {"system": "A2780 xenograft tumors", "test": "A2780 mouse xenograft", "type": "in vivo, BALB/c nude mice", "protocol": "Adult BALB/c nude mice aged 5 weeks (n = 5, body weight 17−19 g) were purchased from Orient Bio (Seongnam, Republic of Korea) and reared in aseptic conditions with 55 ± 10% humidity and 25 ± 2 °C temperature under a 12 h/12 h light-dark cycle (Catholic University protocol). All animal experimental work was carried out in compliance with the legal obligations and federal guidelines and legal obligations for the care and maintenance of laboratory animals. All animal experiments were conducted with the approval of the Institutional Animal Care and Use Committee of the Catholic University of Korea (approval number: CUK-IACUC-2019-026-01). A2780 cell suspension (1 × 10^7 cells/200 μL in 1 × PBS) was injected subcutaneously into the dorsal scapula area of each mouse. The tumor developed 14 days after implantation to a size of approximately 150 mm^3. The mice were then divided randomly into vehicle control (5% DMSO), siltuximab (10 mg/kg), and butein (2 or 4 mg/kg) groups. All drugs were dissolved in 0.05% carboxymethylcellulose sodium salt (CMC) (Sigma-Aldrich, St. Louis, MO, USA) and injected intraperitoneally five times a week for three weeks. The tumor size was measured using calipers once every 2 days. The tumor volume was calculated using a simplified equation (length × width^2 × 0.5). Each tumor was harvested 22 days post-treatment."}}}
{"smiles": "O=C(/C=C/c1ccc(O)c(O)c1)c1ccc(O)cc1O", "note": "[butein]", "values": [{"measurement": "A2780 cells in G1-phase", "setting": "A2780 cells [1]", "value": 55.9, "unit": "%"}, {"measurement": "Phosphorylation of STAT3, SKOV3", "setting": "[2]", "value": "inhibited in a concentration-dependent manner"}, {"measurement": "Cell infiltration (invasion), A2780", "setting": "A2780 cells [3]", "value": "similarly affected"}, {"measurement": "Tumor growth", "setting": "A2780 xenograft tumors; 2 or 4 mg/kg i.p. five times a week, vs vehicle and siltuximab-treated group", "value": "significant inhibition"}, {"measurement": "Total mouse weight", "setting": "A2780 xenograft tumors; during the experimental period", "value": "no difference"}]}
